Consider 21 compounds from US20230159511A1, “TETRAHYDROISOQUINOLINE COMPOUNDS AS NRF2 ACTIVATORS” (C4X Discovery Limited, priority 2020, published 2023).

In this assay the target is T1, human KEAP1 (N-term, residues 321-609) (Homo sapiens, UniProt Q14145).
T1 construct: human KEAP1 (N-term, residues 321-609)
T1 sequence (Q14145 321-609): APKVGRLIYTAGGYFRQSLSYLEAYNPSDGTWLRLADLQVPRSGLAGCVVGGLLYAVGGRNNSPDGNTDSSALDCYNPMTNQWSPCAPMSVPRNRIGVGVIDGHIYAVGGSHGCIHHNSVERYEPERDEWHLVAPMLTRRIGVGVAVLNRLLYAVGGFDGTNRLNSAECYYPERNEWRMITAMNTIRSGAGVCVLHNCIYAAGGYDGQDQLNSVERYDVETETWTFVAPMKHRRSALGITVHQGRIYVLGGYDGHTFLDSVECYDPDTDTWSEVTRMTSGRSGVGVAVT
The assay is described as follows: KEAP1 Kelch Fluorescence Polarization (FP) Assay. It is filed as binding. The conditions noted are these: inhibition of Kelch domain-NRF2 interaction; 2 nM FITC-labelled NRF2 peptide, 25 nM KEAP1, 1 h room temperature; compounds below 10 nM cannot be differentiated. On the procedure:
KEAP1 Kelch Fluorescence Polarization (FP) Assay Method
Inhibition of the Kelch domain-NRF2 interaction was determined using a fluorescence polarization-based competition assay in a black 384-well microplate. Compounds were tested at a starting concentration of 10 μM serially diluted 1:3 to generate a 12-point dose response curve on the Biomek FX robot. Each well contained 2 nM FITC-labelled NRF2 peptide (FITC-LDEETGEFL-NH2) and 25 nM human KEAP1 (N-term, residues 321-609) enzyme in a final volume of 20 μL of assay buffer (50 mM Tris-HCl pH 8.0, 100 mM NaCl, 5 mM MgCl2, 0.005% Tween-20, 0.005% BSA, 0.5% DMSO) in the presence of varying concentrations of test compound. Unlabelled peptide (LDEETGEFL-NH2) at 50 μM (negative control) and 0.5% DMSO (positive control) was used to determine the assay window.
After 1 h at room temperature, fluorescence polarization (excitation 470 nm/emission 530 nm) was measured using an Envision plate reader. IC50 values were determined by fitting the data to a four parameter logistic fit using XLfit or XE Runner within ActivityBase. The assay limit is such that compounds below 10 nM cannot be differentiated.
On to `CNC(=O)[C@H]1CCCC[C@H]1C(=O)N1CCc2cccc(O[C@H]3CCN(C(C)=O)C3)c2[C@H]1CN1C(=O)c2ccccc2C1=O` [Example 5, (1S,2R)-2-((S)-8-(((S)-1-acetylpyrrolidin-3-yl)oxy)-1-((1,3-dioxoisoindolin-2-yl)methyl)-1,2,3,4-tetrahydroisoquinoline-2-carbonyl)-N-methylcyclohexane-1-carboxamide], for which it took 147 nM to reach half-maximal inhibition (IC50).
To `O=C(NCCCO)[C@H]1CCCC[C@H]1C(=O)N1CCc2cccc(O[C@H]3CCN(C(=O)c4cncs4)C3)c2[C@H]1CN1C(=O)c2ccccc2C1=O` [Example 43, (1S,2R)-2-((S)-1-((1,3-dioxoisoindolin-2-yl)methyl)-8-(((S)-1-(thiazole-5-carbonyl)pyrrolidin-3-yl)oxy)-1,2,3,4-tetrahydroisoquinoline-2-carbonyl)-N-(3-hydroxypropyl)cyclohexane-1-carboxamide] belongs 186 nM; to `CNC(=O)[C@H]1CCCC[C@H]1C(=O)N1CCc2cccc(O[C@H]3CCN(C(=O)c4cncs4)C3)c2[C@H]1CN1CCOC1=O` [Example 45, (1S,2R)-N-methyl-2-((S)-1-((2-oxooxazolidin-3-yl)methyl)-8-(((S)-1-(thiazole-5-carbonyl)pyrrolidin-3-yl)oxy)-1,2,3,4-tetrahydroisoquinoline-2-carbonyl)cyclohexane-1-carboxamide], 310 nM; to `CNC(=O)[C@H](C)[C@@H](C)C(=O)N1CCc2c(Cl)ccc(OCc3noc(C(C)C)n3)c2[C@H]1CN1CCCC1=O` [Example 59, (2R,3R)-4-((S)-5-chloro-8-((5-isopropyl-1,2,4-oxadiazol-3-yl)methoxy)-1-((2-oxopyrrolidin-1-yl)methyl)-3,4-dihydroisoquinolin-2(1H)-yl)-N,2,3-trimethyl-4-oxobutanamide], 533 nM.
The compound `CNC(=O)[C@H]1CCCC[C@H]1C(=O)N1CCc2cccc(OCCNC(=O)c3nc4ccccc4o3)c2[C@H]1CN1C(=O)c2ccccc2C1=O` [Example 11, N-(2-(((S)-1-((1,3-dioxoisoindolin-2-yl)methyl)-2-((1R,2S)-2-(methylcarbamoyl)cyclo-hexane-1-carbonyl)-1,2,3,4-tetrahydroisoquinolin-8-yl)oxy)ethyl)benzo[d] oxazole-2-carboxamide] gave a concentration for half-maximal inhibition (IC50) of 37 nM.
`O=C(NCC(F)F)[C@H]1CCCC[C@H]1C(=O)N1CCc2cccc(O[C@H]3CCN(C(=O)c4cncs4)C3)c2[C@H]1CN1C(=O)c2ccccc2C1=O` [Example 31, (1S,2R)-N-(2,2-difluoroethyl)-2-((S)-1-((1,3-dioxoisoindolin-2-yl)methyl)-8-(((S)-1-(thiazole-5-carbonyl)pyrrolidin-3-yl)oxy)-1,2,3,4-tetrahydroisoquinoline-2-carbonyl)cyclohexane-1-carboxamide] returned a concentration for half-maximal inhibition (IC50) of 539 nM.
The value for `CNC(=O)[C@H]1CCCCN1C(=O)N1CCc2cccc(O[C@H]3CCN(C(=O)c4cncs4)C3)c2[C@H]1CN1C(=O)c2ccccc2C1=O` [Example 48] was 728 nM; that for `CNC(=O)[C@H]1CCCC[C@H]1C(=O)N1CCc2cccc(OCc3cnco3)c2[C@H]1CN1C(=O)c2ccccc2C1=O` [Example 21, (1S,2R)-2-((S)-1-((1,3-dioxoisoindolin-2-yl)methyl)-8-(oxazol-5-ylmethoxy)-1,2,3,4-tetrahydroisoquinoline-2-carbonyl)-N-methylcyclohexane-1-carboxamide] was 2250 nM; that for `CNC(=O)N1CCCC[C@H]1C(=O)N1CCc2cccc(O[C@H]3CCN(C(=O)c4cncs4)C3)c2[C@H]1CN1C(=O)c2ccccc2C1=O` [Example 28, (S)-2-((S)-1-((1,3-dioxoisoindolin-2-yl)methyl)-8-(((S)-1-(thiazole-5-carbonyl)pyrrolidin-3-yl)oxy)-1,2,3,4-tetrahydroisoquinoline-2-carbonyl)-N-methylpiperidine-1-carboxamide] was 43 nM.
Regarding `CNC(=O)CCCOc1cccc2c1[C@@H](CN1C(=O)c3ccccc3C1=O)N(C(=O)[C@@H]1CCCC[C@@H]1C(=O)NC)CC2` [Example 2, (1S,2R)-2-((S)-1-((1,3-dioxoisoindolin-2-yl)methyl)-8-(4-(methylamino)-4-oxobutoxy)-1,2,3,4-tetrahydroisoguinoline-2-carbonyl)-N-methylcyclohexane-1-carboxamide], the midpoint of inhibition, the IC50, lay at 339 nM.
The value for `CNC(=O)[C@H]1CCCC[C@H]1C(=O)N1CCc2cccc(O[C@H]3CCN(C(=O)c4cncs4)C3)c2[C@H]1CNC(C)=O` [Example 44] was 1170 nM.
To `CNC(=O)[C@H]1CCCC[C@H]1C(=O)N1CCc2cccc(O[C@H]3CCN(C(=O)c4cnc(C)s4)C3)c2[C@H]1CN1C(=O)c2ccccc2C1=O` [Example 22, (1S,2R)-2-((S)-1-((1,3-dioxoisoindolin-2-yl)methyl)-8-(((S)-1-(2-methylthiazole-5-carbonyl)pyrrolidin-3-yl)oxy)-1,2,3,4-tetrahydroisoquinoline-2-carbonyl)-N-methylcyclohexane-1-carboxamide] belongs 32 nM; to `N#CCNC(=O)[C@H]1CCCC[C@H]1C(=O)N1CCc2cccc(O[C@H]3CCN(C(=O)c4cncs4)C3)c2[C@H]1CN1C(=O)c2ccccc2C1=O` [Example 33, (1S,2R)-N-(cyanomethyl)-2-((S)-1-((1,3-dioxoisoindolin-2-yl)methyl)-8-(((S)-1-(thiazole-5-carbonyl)pyrrolidin-3-yl)oxy)-1,2,3,4-tetrahydroisoquinoline-2-carbonyl)cyclohexane-1-carboxamide], 1510 nM; to `COCCNC(=O)[C@H]1CCCC[C@H]1C(=O)N1CCc2cccc(O[C@H]3CCN(C(=O)c4cncs4)C3)c2[C@H]1CN1C(=O)c2ccccc2C1=O` [Example 30, (1S,2R)-2-((S)-1-((1,3-dioxoisoindolin-2-yl)methyl)-8-(((S)-1-(thiazole-5-carbonyl)pyrrolidin-3-yl)oxy)-1,2,3,4-tetrahydroisoquinoline-2-carbonyl)-N-(2-methoxyethyl)cyclo-hexane-1-carboxamide], 215 nM.
Take `CNC(=O)[C@H]1CCCC[C@H]1C(=O)N1CCc2cccc(O[C@H]3CCN(C(=O)c4csc(C)n4)C3)c2[C@H]1CN1C(=O)c2ccccc2C1=O` [Example 24, (1S,2R)-2-((S)-1-((1,3-dioxoisoindolin-2-yl)methyl)-8-(((S)-1-(2-methylthiazole-4-carbonyl)pyrrolidin-3-yl)oxy)-1,2,3,4-tetrahydroisoquinoline-2-carbonyl)-N-methylcyclohexane-1-carboxamide]: half-maximal inhibition (IC50) required 294 nM.
As for `CNC(=O)[C@H]1CCCC[C@H]1C(=O)N1CCc2cccc(OCc3ccn[nH]3)c2[C@H]1CN1C(=O)c2ccccc2C1=O` [Example 39, (1S,2R)-2-((S)-8-((1H-pyrazol-5-yl)methoxy)-1-((1,3-dioxoisoindolin-2-yl)methyl)-1,2,3,4-tetrahydroisoquinoline-2-carbonyl)-N-methylcyclo hexane-1-carboxamide], the half-inhibitory concentration (IC50) is 3010 nM.
Compound `CNC(=O)[C@H]1CCCC[C@H]1C(=O)N1CCc2c(Cl)ccc(O[C@H]3CCN(C(C)=O)C3)c2[C@H]1CN1C(=O)c2ccccc2C1=O` [Example 37, (1S,2R)-2-((S)-8-(((S)-1-acetylpyrrolidin-3-yl)oxy)-5-chloro-1-((1,3-dioxoisoindolin-2-yl)methyl)-1,2,3,4-tetrahydroisoquinoline-2-carbonyl)-N-methylcyclohexane-1-carboxamide] returned an IC50 of 44 nM.
`Cc1cc(C(=O)NCCOc2cccc3c2[C@@H](CN2C(=O)c4ccccc4C2=O)N(C(=O)[C@@H]2CCCC[C@@H]2C(=O)N2CC(O)C2)CC3)no1` [Example 8, N-(2-(((S)-1-((1,3-dioxoisoindolin-2-yl)methyl)-2-((1R,2S)-2-(3-hydroxyazetidine-1-carbonyl)cyclohexane-1-carbonyl)-1,2,3,4-tetrahydroisoquinolin-8-yl)oxy)ethyl)-5-methylisoxazole-3-carboxamide] gave an IC50 of 1280 nM.
The value for `CNC(=O)CCC(=O)N1CCc2cccc(O[C@H]3CCN(C(=O)c4cncs4)C3)c2[C@H]1CN1C(=O)c2ccccc2C1=O` [Example 41, 4-((S)-1-((1,3-dioxoisoindolin-2-yl)methyl)-8-(((S)-1-(thiazole-5-carbonyl)pyrrolidin-3-yl)oxy)-3,4-dihydroisoquinolin-2(1H)-yl)-N-methyl-4-oxobutanamide] was 788 nM; that for `COC(=O)N1CCC[C@H]1C(=O)N1CCc2cccc(O[C@H]3CCN(C(=O)c4cncs4)C3)c2[C@H]1CN1C(=O)c2ccccc2C1=O` [Example 51, methyl (S)-2-((S)-1-((1,3-dioxoisoindolin-2-yl)methyl)-8-(((S)-1-(thiazole-5-carbonyl)pyrrolidin-3-yl)oxy)-1,2,3,4-tetrahydroisoquinoline-2-carbonyl)pyrrolidine-1-carboxylate] was 1700 nM.
The value for `CNC(=O)[C@H]1CCCC[C@H]1C(=O)N1CCc2cccc(OCc3cnccn3)c2[C@H]1CN1C(=O)c2ccccc2C1=O` [Example 27, (1S,2R)-2-((S)-1-((1,3-dioxoisoindolin-2-yl)methyl)-8-(pyrazin-2-ylmethoxy)-1,2,3,4-tetrahydroisoquinoline-2-carbonyl)-N-methylcyclohexane-1-carboxamide] was 565 nM.
